# Reference: US20170020909A1, “METHODS OF TREATING GLAUCOMA USING AMP-ACTIVATED PROTEIN KINASE (AMPK) ACTIVATORS” (Massachusetts Eye and Ear Infirmary, priority 2014, published 2017)
# Experiments:
# Type in all cases: cell-based
# Settings in all cases: 24 hours
# TSP-1 = assay: Immunoblot of TSP-1 in conditioned media of human TM cells
# Protocol: (§1) FIGS. 5A-E. AICAR suppresses ECM proteins in primary human TM cells under basal and TGF-β2 stimulatory conditions. (A) Representative immunoblots of ECM proteins from conditioned media (CM) of human TM cells treated for 24 hours with PBS vehicle or 0.5 mM AICAR and (B) integrated band intensities calculated from those immunoblots. (C) Representative immunoblots of ECM proteins from CM of human TM cells under stimulation with 2.5 ng/mL TGF-β2. Cells were pre-incubated for 1 hour with PBS or 0.5 mM AICAR prior to full 24-hour treatment. (D) Mean integrated band intensities. Data in panels B and D are expressed as mean±SEM (*p<0.05 vs. PBS vehicle by student t-test; n=5-7). (E) Representative 10% acrylamide gels stained with Coomassie Brilliant Blue as a loading control. […]
# (§2) At the conclusion of each experiment for matricellular and ECM protein detection, conditioned media (CM) from TM cell cultures was harvested and centrifuged at 5000 rpm for 10 minutes at 4° C. The supernatant was then concentrated (Amicon Ultra-4 Filter Unit, 10 kDa; Millipore, Milford, Mass.), and protein content quantified using the DC Protein Assay kit adhering to manufacturer's protocols (Bio-Rad, Hercules, Calif.). […] Samples were then centrifuged at 14,000 rpm for 15 minutes at 4° C. and protein content quantified. […]
# collagen IV = assay: Immunoblot of collagen IV in conditioned media of human TM cells
# Protocol: as §1, §2
# collagen I = assay: Immunoblot of collagen I in conditioned media of human TM cells
# Protocol: as §1, §2
# [1] = 0.5 mM AICAR vs PBS vehicle, basal
# [2] = 0.5 mM AICAR, under TGF-β2 stimulation with 2.5 ng/mL
smiles,measurement,setting,value
"NC(=O)c1ncn([C@@H]2O[C@H](CO)[C@@H](O)[C@H]2O)c1N [AICAR, 5-Aminoimidazole-4-carboxamide riboside]",change in TSP-1 (mean integrated band intensity),TSP-1; [1],no change
same,change in TSP-1 levels,TSP-1; [2],no change
same,decrease in collagen IV (mean integrated band intensity),collagen IV; [1],52%
same,decrease in collagen IV level,collagen IV; [2],34%
same,decrease in collagen I (mean integrated band intensity),collagen I; [1],70%
same,decrease in collagen I level,collagen I; [2],26%
